Assay results: patent US20140206624A1, “TREATMENT OF LEUKEMIA” (THE BRIGHAM AND WOMEN'S HOSPITAL, INC., priority 2011, published 2014)

Columns and labels:
Type in all cases: in vivo, mouse
[1] = system: c-Jun, FoxO3 phosphorylation; assay: Western blot of BM cells from mice that succumbed to AML; conditions: pI-pC-treated Mx1-Cre+ mice that died of AML despite deletion of FoxO1/3/4
From the text: BM cells recovered from mice that succumbed to control or myrAKT-expressing MLL-AF9-induced AML (refer to FIG. 10G) were subjected to western blot with antibodies that specifically recognize AKT, Tubulin or the phosphorylated forms of FoxO3 (pFoxO3^S256) c-JUN (pc-JUN^S63).
BM cells recovered from mice that succumbed MLL-AF9-induced AML (refer to FIG. 5F) that were wild type or null for FoxO1/3/4 were subjected to western blot with antibodies that specifically recognize AKT, Tubulin or the phosphorylated forms of FoxO3 (pFoxO3^S256) c-JUN (pc-JUN^S63).
Based on the observation that the JNK/c-JUN signaling pathway is activated in response to FOXO inhibition (directly or via AKT activation), whether the activation of this pathway was also initiated in vivo was examined. To this end, the phosphorylation status of c-Jun in BM cells of saline and pI-pC-treated FoxO1/3/4^floxed; Mx1-Cre+; MLL-AF9 mice (FIG. 9F) that developed overt AML was examined. Enhanced pc-Jun^Ser63 in 75% of mice that died of AML despite efficient deletion of FoxO1/3/4 (FIGS. 13A and 10C-10F) was observed. The phosphorylation status of BM cells derived from control and myrAKT-expressing leukemic mice from FIG. 10H was evaluated.

L-GMP population = assay: L-GMP and mature myeloid cell proportion in leukemic BM; conditions: seven days following pI-pC, Mx1-Cre+
Protocol: Seven days following the administration of saline or pI-pC, secondary mice transplanted with MLL-AF9-positive FoxO1/3/4^floxed; Mx1-Cre+ leukmic BM cells were euthanized. Leukemic BM cells were then isolated from each treatment condition (Saline (Ctrl) versus pI-pC (pI-pC)) were analyzed for the proportion of L-GMPs (lineage^low, Sca-1^−, cKit^hi, CD34^+, FcgRII/III^+, p=0.039; n=3).
Seven days following the administration of saline or pI-pC, secondary mice transplanted with MLL-AF9-positive FoxO1/3/4^floxed; Mx1-Cre+ leukemic BM cells were euthanized. Leukemic BM cells were then isolated from each treatment condition (Saline (Ctrl) versus pI-pC (pI-pC)) were analyzed for the proportion of mature myeloid cells (lineage^hi, CD11b^+, p=0.0098; n=3)
L-GMP and GMP populations were analyzed and sorted with a BD FACSARIA™ instrument (BD™ Biosciences). To analyze and isolate L-GMPs and GMPs, total BM cells were recovered from flushing the tibias and femurs of leukemic and healthy mice respectively with PBS supplemented with 2% FBS and 1% Penicillin/Streptomycin (F-PBS). […] For Phosphoflow experiments, cells were stained with cKit-Ax750 and CD34-antibodies in combination with phospho-AKT^Ser473-PE, phospho-AKT^Thr308-APC or phospho-S6^Ser235/236-APC antibodies and analyzed on a FACSAria according to the following protocol: • 1. […]

FoxO1, FoxO3, FoxO4 = assay: Excision efficiency (Real Time PCR, western blot) in BM
From the text: RNA recovered from BM was converted to cDNA and then analyzed for FoxO1 (FIG. 10C.), FoxO3 (FIG. 10D.), FoxO4 (FIG. 10E.) and GAPDH expression by quantitative Real Time PCR. Each FoxO gene expression is normalized with GAPDH expression.
BM recovered from one saline-treated FoxO1/3/4^floxed; MLL-AF9; Mx1-Cre+ mouse (lane 1) five FoxO1/3/4^floxed; MLL-AF9; Mx1-Cre+ mice treated with pI-pC (lanes 2-6) that succumbed to AML-related death were subjected to Western blot with FoxO3 (75D8) and Tubulin antibodies.

Substance: polyinosine-polycytidyline [pI-pC]
- mice with enhanced pc-Jun^Ser63 [1]: 75%
- L-GMPs (L-GMP population): immunophenotypic reduction
- lineage^hi, CD11b^hi(+) myeloid cells (L-GMP population): concomitant increase
- FOXO1/3/4 expression (quantitative Real Time PCR, normalized with GAPDH) (FoxO1, FoxO3, FoxO4; BM RNA): suppression of FOXO1/3/4 expression
- FOXO3 (Western blot) (FoxO1, FoxO3, FoxO4; BM of Mx1-Cre+ mice that succumbed to AML): below detection
